These are literature values, as cited in US20120165520A1, “PROCESS FOR THE SYNTHESIS OF PRODRUGS OF OPIOIDS” (priority 2010, published 2012).

Assay in data set [1]: not given
The source holds these as a separate data set.

Molecules are shown by their SMILES.

In the case of `CCC1(c2cccc(O)c2)CCCCN(C)C1` (centres unmarked) [Meptazinol, meptazinol], the oral bioavailability is listed as under 10%. As for `COc1ccc2c3c1O[C@H]1[C@@H](O)CC[C@H]4[C@@H](C2)N(C)CC[C@@]341` [dihydrocodeine], the “fraction of an oral dose converted to dihydromorphine” value in data set [1] is “less than 2%”.
